This is an account of results in patent US20230295200A1 (REGENTS OF THE UNIVERSITY OF MICHIGAN, priority 2022, published 2023).

Structures are written as SMILES.

The target in one assay is T1, STAT6 protein (Homo sapiens, UniProt P42226).
T1 sequence (P42226 1-847): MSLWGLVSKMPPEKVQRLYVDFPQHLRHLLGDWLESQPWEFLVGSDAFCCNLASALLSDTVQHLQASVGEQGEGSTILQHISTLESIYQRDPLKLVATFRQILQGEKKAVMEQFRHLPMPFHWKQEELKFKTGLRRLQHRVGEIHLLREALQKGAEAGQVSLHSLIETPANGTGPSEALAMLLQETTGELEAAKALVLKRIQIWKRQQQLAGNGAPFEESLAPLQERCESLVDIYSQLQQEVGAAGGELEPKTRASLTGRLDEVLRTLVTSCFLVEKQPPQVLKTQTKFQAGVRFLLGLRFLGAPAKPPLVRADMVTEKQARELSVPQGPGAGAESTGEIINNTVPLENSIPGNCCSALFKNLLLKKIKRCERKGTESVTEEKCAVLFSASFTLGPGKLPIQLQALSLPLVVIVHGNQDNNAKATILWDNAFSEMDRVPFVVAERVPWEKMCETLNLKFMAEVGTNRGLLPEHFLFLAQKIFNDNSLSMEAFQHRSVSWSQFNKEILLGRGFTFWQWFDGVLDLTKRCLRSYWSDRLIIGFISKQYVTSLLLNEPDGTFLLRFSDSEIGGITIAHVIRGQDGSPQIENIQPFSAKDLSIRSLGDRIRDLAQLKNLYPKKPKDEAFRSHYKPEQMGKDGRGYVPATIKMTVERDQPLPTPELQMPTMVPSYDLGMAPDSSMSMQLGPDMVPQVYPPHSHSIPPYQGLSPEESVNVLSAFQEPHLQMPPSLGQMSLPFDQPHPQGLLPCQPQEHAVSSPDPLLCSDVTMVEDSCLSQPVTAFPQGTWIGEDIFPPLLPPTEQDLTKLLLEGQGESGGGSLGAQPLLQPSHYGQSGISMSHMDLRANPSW
Put plainly: Fluorescence polarization (FP) binding assay, STAT6. As to conditions: FP competition, 5 nM fluorescein-labeled tracer, 200 nM protein, PBS pH7.4; read-out: Binding STAT6. A digest of the protocol: (§1)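 5 nM fluorescein tracer + 200 nM STAT protein; PBS pH 7.4, 0.01% BGG, 0.01% Tween-20, 2 mM DTT; shake 15 min, 1 h RT equilibrium; FP read; nonlinear fit for inhibition constants.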
In general terms: In fluorescence polarisation assays a small probe gives low polarisation when free and higher when bound to something large.

A further assay addresses T2, STAT5A (Homo sapiens, UniProt P42229).
T2 sequence (P42229 1-794): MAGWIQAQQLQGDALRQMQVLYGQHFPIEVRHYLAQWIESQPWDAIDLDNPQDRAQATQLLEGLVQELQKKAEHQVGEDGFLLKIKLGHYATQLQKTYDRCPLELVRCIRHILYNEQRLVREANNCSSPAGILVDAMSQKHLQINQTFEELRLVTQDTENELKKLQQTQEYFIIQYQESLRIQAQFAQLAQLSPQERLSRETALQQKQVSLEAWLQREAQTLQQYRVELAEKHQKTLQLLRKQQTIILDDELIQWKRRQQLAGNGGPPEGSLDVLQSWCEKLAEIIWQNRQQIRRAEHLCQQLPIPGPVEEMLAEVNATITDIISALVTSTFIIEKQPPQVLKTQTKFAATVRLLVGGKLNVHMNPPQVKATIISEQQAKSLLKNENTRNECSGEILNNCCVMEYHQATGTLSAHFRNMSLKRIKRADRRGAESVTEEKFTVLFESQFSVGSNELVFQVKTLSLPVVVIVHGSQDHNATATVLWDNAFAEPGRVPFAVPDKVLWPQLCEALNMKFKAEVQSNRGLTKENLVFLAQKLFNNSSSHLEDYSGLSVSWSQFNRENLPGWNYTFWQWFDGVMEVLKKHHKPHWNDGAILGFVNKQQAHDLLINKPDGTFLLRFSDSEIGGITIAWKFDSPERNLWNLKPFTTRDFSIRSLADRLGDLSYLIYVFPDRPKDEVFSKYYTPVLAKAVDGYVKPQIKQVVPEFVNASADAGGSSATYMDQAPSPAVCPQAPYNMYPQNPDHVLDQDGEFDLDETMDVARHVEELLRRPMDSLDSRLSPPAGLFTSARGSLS
Description: Fluorescence polarization (FP) binding assay, STAT5A. As to conditions: FP competition, 5 nM fluorescein-labeled tracer, 200 nM protein, PBS pH7.4. A digest of the protocol:
as §1

Turning to `CC(C)(C)[C@H](NC(=O)c1cc2cc(C(F)(F)P(=O)(O)O)ccc2s1)C(=O)N1CCC[C@H]1C(=O)N1CCOC(c2cccc(Cl)c2)C1` (stereo partly drawn) [Compound 103, ((2-(((2S)-1-((2S)-2-(2-(3-chlorophenyl)morpholine-4-carbonyl)pyrrolidin-1-yl)-3,3-dimethyl-1-oxobutan-2-yl)carbamoyl)benzo[b]thiophen-5-yl)difluoromethyl)phosphonic acid], the Ki on STAT6 protein and at STAT5A was 1000 to 10000 nM each time.

Consider `CC(C)(C)[C@H](NC(=O)c1cc2cc(C(F)(F)P(=O)(O)O)ccc2s1)C(=O)N1CCC[C@H]1C(=O)N1CCOC(c2cc(F)c(Cl)cc2Cl)C1` (stereo partly drawn) [Compound 104, ((2-(((2S)-1-((2S)-2-(2-(2,4-dichloro-5-fluorophenyl)morpholine-4-carbonyl)pyrrolidin-1-yl)-3,3-dimethyl-1-oxobutan-2-yl)carbamoyl)benzo[b]thiophen-5-yl)difluoromethyl)phosphonic acid], for which the Ki on STAT6 protein and on STAT5A was 1000 to 10000 nM each time.

As to `Cc1ccccc1C1CCCN(C(=O)[C@@H]2CCCN2C(=O)[C@@H](NC(=O)c2cc3cc(C(F)(F)P(=O)(O)O)ccc3s2)C(C)(C)C)C1` (stereo partly drawn) [Compound 105, ((2-(((2S)-3,3-dimethyl-1-oxo-1-((2S)-2-(3-(o-tolyl)piperidine-1-carbonyl)pyrrolidin-1-yl)butan-2-yl)carbamoyl)benzo[b]thiophen-5-yl)difluoromethyl)phosphonic acid], the Ki is 1000 to 10000 nM on STAT6 protein and over 10000 nM at STAT5A.

For `Cc1ccccc1C1CN(C(=O)[C@@H]2CCCN2C(=O)[C@@H](NC(=O)c2cc3cc(C(F)(F)P(=O)(O)O)ccc3s2)C(C)(C)C)CCO1` (stereo partly drawn) [Compound 106, ((2-(((2S)-3,3-dimethyl-1-oxo-1-((2S)-2-(2-(o-tolyl)morpholine-4-carbonyl)pyrrolidin-1-yl)butan-2-yl)carbamoyl)benzo[b]thiophen-5-yl)difluoromethyl)phosphonic acid], the Ki on STAT6 protein lay in the range of 100 to 1000 nM; at STAT5A, 1000 to 10000 nM.

For `Cc1ccc(C2CN(C(=O)[C@@H]3CCCN3C(=O)[C@@H](NC(=O)c3cc4cc(C(F)(F)P(=O)(O)O)ccc4s3)C(C)(C)C)CCO2)c(C)c1` (stereo partly drawn) [Compound 107, ((2-(((2S)-1-((2S)-2-(2-(2,4-dimethylphenyl)morpholine-4-carbonyl)pyrrolidin-1-yl)-3,3-dimethyl-1-oxobutan-2-yl)carbamoyl)benzo[b]thiophen-5-yl)difluoromethyl)phosphonic acid], the Ki on STAT6 protein is 1000 to 10000 nM; at STAT5A, over 10000 nM.

Regarding `Cc1cc(C2CN(C(=O)[C@@H]3CCCN3C(=O)[C@@H](NC(=O)c3cc4cc(C(F)(F)P(=O)(O)O)ccc4s3)C(C)(C)C)CCO2)ccc1F` (stereo partly drawn) [Compound 108, (difluoro(2-(((2S)-1-((2S)-2-(2-(4-fluoro-3-methylphenyl)morpholine-4-carbonyl)pyrrolidin-1-yl)-3,3-dimethyl-1-oxobutan-2-yl)carbamoyl)benzo[b]thiophen-5-yl)methyl)phosphonic acid], the Ki is 1000 to 10000 nM at STAT6 protein and over 10000 nM at STAT5A.

As for `CC(C)(C)[C@H](NC(=O)c1cc2cc(C(F)(F)P(=O)(O)O)ccc2s1)C(=O)N1CCC[C@H]1C(=O)N1CCOC(c2ccccc2F)C1` (stereo partly drawn) [Compound 109, (difluoro(2-(((2S)-1-((2S)-2-(2-(2-fluorophenyl)morpholine-4-carbonyl)pyrrolidin-1-yl)-3,3-dimethyl-1-oxobutan-2-yl)carbamoyl)benzo[b]thiophen-5-yl)methyl)phosphonic acid], the Ki at STAT6 protein was 100 to 1000 nM; on STAT5A, over 10000 nM.

Consider `CC(C)(C)[C@H](NC(=O)c1cc2cc(C(F)(F)P(=O)(O)O)ccc2s1)C(=O)N1CCC[C@H]1C(=O)N1CCOC(c2ccc(F)cc2F)C1` (stereo partly drawn) [Compound 110, ((2-(((2S)-1-((2S)-2-(2-(2,4-difluorophenyl)morpholine-4-carbonyl)pyrrolidin-1-yl)-3,3-dimethyl-1-oxobutan-2-yl)carbamoyl)benzo[b]thiophen-5-yl)difluoromethyl)phosphonic acid], for which the Ki is 1000 to 10000 nM at STAT6 protein and over 10000 nM at STAT5A.

With `CC(C)(C)[C@H](NC(=O)c1cc2cc(C(F)(F)P(=O)(O)O)ccc2s1)C(=O)N1CCC[C@H]1C(=O)N1CCOC(c2ccc(F)c(F)c2)C1` (stereo partly drawn) [Compound 111, ((2-(((2S)-1-((2S)-2-(2-(3,4-difluorophenyl)morpholine-4-carbonyl)pyrrolidin-1-yl)-3,3-dimethyl-1-oxobutan-2-yl)carbamoyl)benzo[b]thiophen-5-yl)difluoromethyl)phosphonic acid], the results for the Ki on STAT6 protein and on STAT5A were 100 to 1000 nM and over 10000 nM, respectively.

As to `CC(C)(C)[C@H](NC(=O)c1cc2cc(C(F)(F)P(=O)(O)O)ccc2s1)C(=O)N1CCC[C@H]1C(=O)N1CCOC(c2ccccc2Cl)C1` (stereo partly drawn) [Compound 112, ((2-(((2S)-1-((2S)-2-(2-(2-chlorophenyl)morpholine-4-carbonyl)pyrrolidin-1-yl)-3,3-dimethyl-1-oxobutan-2-yl)carbamoyl)benzo[b]thiophen-5-yl)difluoromethyl)phosphonic acid], the Ki was 100 to 1000 nM at STAT6 protein and over 10000 nM at STAT5A.

Consider `CC(C)(C)[C@H](NC(=O)c1cc2cc(C(F)(F)P(=O)(O)O)ccc2s1)C(=O)N1CCC[C@H]1C(=O)N1CCOC(c2ccc(F)c(Cl)c2)C1` (stereo partly drawn) [Compound 113, ((2-(((2S)-1-((2S)-2-(2-(3-chloro-4-fluorophenyl)morpholine-4-carbonyl)pyrrolidin-1-yl)-3,3-dimethyl-1-oxobutan-2-yl)carbamoyl)benzo[b]thiophen-5-yl)difluoromethyl)phosphonic acid], for which the Ki at STAT6 protein is 100 to 1000 nM; on STAT5A, 1000 to 10000 nM.

As for `CC(C)(C)[C@H](NC(=O)c1cc2cc(C(F)(F)P(=O)(O)O)ccc2s1)C(=O)N1CCC[C@H]1C(=O)N1CCOC(c2ccc(Cl)c(Cl)c2)C1` (stereo partly drawn) [Compound 114, ((2-(((2S)-1-((2S)-2-(2-(3,4-dichlorophenyl)morpholine-4-carbonyl)pyrrolidin-1-yl)-3,3-dimethyl-1-oxobutan-2-yl)carbamoyl)benzo[b]thiophen-5-yl)difluoromethyl)phosphonic acid], the figures for the Ki on STAT6 protein and on STAT5A were 100 to 1000 nM and 1000 to 10000 nM, respectively.

With `CCOC(=O)C1CCN(C(=O)[C@@H]2CCCN2C(=O)[C@@H](NC(=O)c2cc3cc(C(F)(F)P(=O)(O)O)ccc3s2)C(C)(C)C)CC1c1ccccc1` (stereo partly drawn) [Compound 115, ((2-(((2S)-1-((2S)-2-(4-(ethoxycarbonyl)-3-phenylpiperidine-1-carbonyl)pyrrolidin-1-yl)-3,3-dimethyl-1-oxobutan-2-yl)carbamoyl)benzo[b]thiophen-5-yl)difluoromethyl)phosphonic acid], the Ki on STAT6 protein is 1000 to 10000 nM; at STAT5A it was over 10000 nM.

Regarding `CC(=O)N1CC[C@H]2CC[C@@H](C(=O)N3CCOC[C@@H]3c3ccccc3)N2C(=O)[C@@H](NC(=O)c2cc3cc(C(F)(F)P(=O)(O)O)ccc3s2)C1` [Compound 120, ((2-(((5S,8S,10aR)-3-acetyl-6-oxo-8-((S)-3-phenylmorpholine-4-carbonyl)decahydropyrrolo[1,2-a][1,5]diazocin-5-yl)carbamoyl)benzo[b]thiophen-5-yl)difluoromethyl)phosphonic acid], the Ki on STAT6 protein was 1000 to 10000 nM; on STAT5A it was over 10000 nM.
